Laboratory results taken from US9308295B2, “Oxygenated demineralized bone matrix for bone growth” (THERACELL, INC., priority 2013, dated 2016).

What was measured:
[1] = in vivo; cited from earlier work
[2] = system: new bone formation in intramuscular pouch in the rat biceps femoris; assay: Intramuscular implantation of DBM/PFC slurry in rat biceps femoris, histology at 28 days; assay type: in vivo; conditions: DBM/PFC slurry mixture in saline, intramuscular pocket in biceps femoris, control DBM alone in contralateral limb
Experimental: (§1) The induction of bone growth using DBM and an oxygen carrier was previously disclosed in U.S. Publication Application No. 2012/0082704, the entire contents of which are herein incorporated by reference. In order to investigate the properties of a perfluorocarbon (PFC) oxygen carrier and to investigate the effects of DBM and a PFC in two environments having different vascularization, four different PFCs were assayed in combination with DBM. Specifically perfluorohexane, (PFC1), perfluorodecalin (PFC2), perfluorotributylamine (PFC3), and perfluoroperhydrophenanthrene (PFC4) were mixed with DBM (powder or chips) to form a DBM/PFC mixture. In some embodiments, the amount of PFC in the PFC/DBM mixture is in the range of about 32-48 weight %. Sterile saline was then added to provide a slurry with the handling characteristics of wet sand. […] This DBM/PFC slurry mixture was then applied to a subcutaneous pouch and an intramuscular pouch in the rat biceps femoris.
(§2) 0.4 ml of the perfluorocarbon was filtered through a 0.2 micron filter and added to 0.8 g of DBM (powder or chips) at the time of surgery prior to implantation in either a subcutaneous or an intramuscular pouch in the rat biceps femoris. Using a sterile spatula the mixture was gently mixed to ensure complete wetting out of the DBM powder. This was assessed visually. 1.4 ml of sterile saline was then added to the mixture and the resultant slurry was loaded into a 1 ml syringe with its end removed, resulting in a composition including PFC at about 32 to about 48% by weight. The mixture was lightly tamped and using the plunger on the syringe a 0.2 ml implant volume was defined. This was then introduced into the rat pouch. The PFCs included several perfluoroperhydrophenanthrene and perfluorodecalin that have achieved FDA clearance for use in various procedures in humans. In prior studies bone forms readily in DBM implanted in the SD […] model, and thus a human DBM was selected specifically to be from low activity level batches (1965 picograms/gram BMP2; Spec>2300) (Allosource®, Centennial, Colo.). A formulation consisting of DBM+PFC+Saline was prepared at the time of surgery. […] Perfluorohexane, (PFC1), perfluorodecalin (PFC2), and perfluoroperhydrophenanthrene (PFC4) were obtained from a GMP manufacturer and have varying levels of US Device/Drug usage. Accordingly, perfluorohexane, (PFC1), perfluorodecalin (PFC2), and perfluoroperhydrophenanthrene (PFC4) represent material and supplier suitable for use in a commercial product.
(§3) 30 SD Rats (Rattusnorvegicus, CR; NIH-RNU) received bilateral placement of test article (i.e., the DBM and PFC slurry) intramuscularly within the biceps femoris muscle or subcutaneously. Each animal acted as its own control with a saline/DBM implant in the contralateral limb. […]

[3] = system: new bone formation in subcutaneous pouch; assay: Subcutaneous implantation of DBM/PFC slurry in a rat pouch, histology at 28 days; assay type: in vivo; conditions: subcutaneous pocket, PFC with DBM
Experimental: as §1, §2, §3

FC1(F)C(F)(F)C(F)(F)C2(F)C(F)(F)C(F)(F)C(F)(F)C(F)(F)C2(F)C1(F)F (stereo not drawn) [PFC2, Perfluorodecalin]
retention in the liver [1]: not retained in the liver
histologic grade of new bone formation as compared to DBM alone [2]: increased histologic grade of new bone formation
performance of the PFCs relative to each other in new bone formation [3]: performed better than PFC1, PFC3, and PFC4

FC(F)(F)C(F)(F)C(F)(F)C(F)(F)C(F)(F)C(F)(F)F [PFC1, Perfluorohexane]
histologic grade of new bone formation as compared to DBM alone [2]: increased histologic grade of new bone formation
performance of the PFCs relative to each other in new bone formation [3]: performed equally

FC(F)(F)C(F)(F)C(F)(F)C(F)(F)N(C(F)(F)C(F)(F)C(F)(F)C(F)(F)F)C(F)(F)C(F)(F)C(F)(F)C(F)(F)F [PFC3, Perfluorotributylamine]
histologic grade of new bone formation as compared to DBM alone [2]: increased histologic grade of new bone formation
performance of the PFCs relative to each other in new bone formation [3]: performed equally

FC1(F)C(F)(F)C(F)(F)C2(F)C(F)(C1(F)F)C(F)(F)C(F)(F)C1(F)C(F)(F)C(F)(F)C(F)(F)C(F)(F)C12F (stereo not drawn) [PFC4, Perfluoroperhydrophenanthrene]
histologic grade of new bone formation as compared to DBM alone [2]: increased histologic grade of new bone formation
performance of the PFCs relative to each other in new bone formation [3]: performed equally
